Data: patent US20260166159A1, “KRAS G12D DEGRADATION AGENT, AND PREPARATION METHOD AND USE THEREFOR” (LEADINGTAC PHARMACEUTICAL (SHAOXING) CO., LTD., priority 2022, published 2026)

Columns and labels:
[1] = tested on: KRAS G12D mutant human lung cancer cell A427; test: 3D cell proliferation inhibition assay, A427; format: cell-based; settings: A-427, 168 h, A427, 7 days, CTG, class symbols
Method in brief: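 A 7-day 3D growth at 37 °C, 5% CO2, 5×10^2 cells/well, with final compound concentrations of 10000–0.026 nM and 0.2% DMSO. Read-out: CTG luminescence (60 min, room temperature); % inhibition against DMSO-treated cells and medium blank, fitted versus log concentration to give IC50.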

[2] = molecular target: T1, Human KRAS G12D 6His-tagged (Homo sapiens, UniProt P01116, G12D); test: KRAS-G12D/GTP binding assay (HTRF); settings: class symbols
T1 construct: purchased PerkinElmer
T1 sequence (P01116 1-188 isoform P01116-2 G12D): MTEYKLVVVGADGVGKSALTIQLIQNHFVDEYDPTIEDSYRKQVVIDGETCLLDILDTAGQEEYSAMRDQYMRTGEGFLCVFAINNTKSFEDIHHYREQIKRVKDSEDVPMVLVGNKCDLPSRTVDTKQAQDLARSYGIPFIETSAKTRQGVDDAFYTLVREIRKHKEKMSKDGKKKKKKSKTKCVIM
Method in brief: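 Compounds at 0.02-5000 nM final (0.5% DMSO) were tested for blocking GTP Red tracer binding to His-tagged KRAS G12D, detected by Eu-cryptate anti-His antibody after 1 h, 25° C. Inhibition taken from 665/620 nm ratio relative to control, then fitted to give IC50.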

Structure (SMILES): C#Cc1c(F)ccc2cc(O)cc(-c3ncc4c(N5CC6CCC(C5)N6)nc(OCC5(CN6CCN(CCCC7CCN(C(=O)c8ccc(Cl)c(N9CCC(=O)NC9=O)c8)CC7)CC6)CC5)nc4c3F)c12 [Example 4, 1-(5-(4-(3-(4-((1-(((4-(3,8-diazabicyclo[3.2.1]octan-3-yl)-7-(8-ethynyl-7-fluoro-3-hydroxynaphthalen-1-yl)-8-fluoropyrido[4,3-d]pyrimidin-2-yl)oxy)methyl)cyclopropyl)methyl)piperazin-1-yl)propyl)piperidine-1-carbonyl)-2-chlorophenyl)dihydropyrimidine-2,4(1H,3H)-dione]
- IC50 [1]: 100 to 500 nM
- IC50 [2]: ≤ 50 nM
